Laboratory results reported in ChEMBL document CHEMBL3885861, “Open TG-GATES”.

Organism: Rattus norvegicus
Experiment: Open TG-GATES - Regimen: Single
Format: toxicity, organism-based, Sprague-Dawley
Set-up: regimen Single, gender Male, age 6 weeks
Settings: in vivo, po, 10 mg/kg, route gavage, dose level Middle; for APTT / Bas / Eos / Fbg / Hb / Ht / Lym / MCH / MCHC / MCV / Mono / Neu / PT / Plat / RBC / Ret / WBC: tissue Blood; for KIDNEY_L / KIDNEY_R / KIDNEY_TOTAL: tissue Kidney; for LIVER: tissue Liver; for A/G / ALP / ALT / AST / BUN / CRE / Ca / Cl / DBIL / GLC / IP / K / LDH / Na / PL / RALB / TBIL / TC / TG / TP / gamma-GTP: tissue Plasma

In the case of `C=CCO` [ALLYL ALCOHOL], the TERMINAL_BW (3 h) is reported as 220.3 g, the APTT (3 h) is reported as 20.3 s and the Bas (3 h) is reported as 0%. It also gave an Eos (3 h) of 1%, a Fbg (3 h) of 217.8 mg/dL and a Hb (3 h) of 13.7 g/dL. It also gave a Ht (3 h) of 39.5%, a Lym (3 h) of 79.4% and an MCH (3 h) of 21.3 pg. It also gave an MCHC (3 h) of 34.9%, an MCV (3 h) of 61 fL and a Mono (3 h) of 2.8%. It also gave a Neu (3 h) of 16.8%, a PT (3 h) of 12.5 s and a Plat (3 h) of 140.4 x10_4/uL. For the same compound, the RBC (3 h) was 648.2 x10_4/ul, the Ret (3 h) was 6.3% and the WBC (3 h) was 94.5 x10_2/uL. The KIDNEY_L (3 h) was 1 g, the KIDNEY_R (3 h) was 1 g and the KIDNEY_TOTAL (3 h) was 2 g. The LIVER (3 h) was 9.9 g, the A/G (3 h) was 1.5 and the ALP (3 h) was 1147.4 IU/L. The ALT (3 h) was 37.6 IU/L, the AST (3 h) was 69.6 IU/L and the BUN (3 h) was 10.2 mg/dL. It also gave a CRE (3 h) of 0.4 mg/dL, a Ca (3 h) of 10.6 mg/dL and a Cl (3 h) of 100.2 meq/L. For the same compound, the DBIL (3 h) was 0.3 mg/dL, the GLC (3 h) was 197.8 mg/dL and the IP (3 h) was 8.6 mg/dL. The K (3 h) was 3.7 meq/L, the LDH (3 h) was 209.2 IU/L and the Na (3 h) was 139.4 meq/L. The PL (3 h) was 170.4 mg/dL, the RALB (3 h) was 3.4 g/dL and the TBIL (3 h) was 0.4 mg/dL. It also gave a TC (3 h) of 77 mg/dL, a TG (3 h) of 204.8 mg/dL and a TP (3 h) of 5.6 g/dL. For the same compound, the gamma-GTP (3 h) was 1 IU/L, the TERMINAL_BW (6 h) was 220.1 g and the APTT (6 h) was 19.1 s. For the same compound, the Bas (6 h) was 0%, the Eos (6 h) was 1% and the Fbg (6 h) was 226.8 mg/dL. For the same compound, the Hb (6 h) was 13.2 g/dL, the Ht (6 h) was 38.1% and the Lym (6 h) was 76%. The MCH (6 h) was 22 pg, the MCHC (6 h) was 34.5% and the MCV (6 h) was 63.7 fL. The Mono (6 h) was 3.2%, the Neu (6 h) was 19.2% and the PT (6 h) was 12.1 s. It also gave a Plat (6 h) of 132 x10_4/uL, an RBC (6 h) of 598 x10_4/ul and a Ret (6 h) of 7.1%. For the same compound, the WBC (6 h) was 99.4 x10_2/uL, the KIDNEY_L (6 h) was 1 g and the KIDNEY_R (6 h) was 1 g. The KIDNEY_TOTAL (6 h) was 1.9 g, the LIVER (6 h) was 9.8 g and the A/G (6 h) was 1.4. The ALP (6 h) was 1136.8 IU/L, the ALT (6 h) was 35 IU/L and the AST (6 h) was 74 IU/L. The BUN (6 h) was 8 mg/dL, the CRE (6 h) was 0.4 mg/dL and the Ca (6 h) was 10.7 mg/dL. It also gave a Cl (6 h) of 102.4 meq/L, a DBIL (6 h) of 0.2 mg/dL and a GLC (6 h) of 200.2 mg/dL. It also gave an IP (6 h) of 9.1 mg/dL, a K (6 h) of 3.8 meq/L and an LDH (6 h) of 221.4 IU/L. For the same compound, the Na (6 h) was 141.2 meq/L, the PL (6 h) was 164.2 mg/dL and the RALB (6 h) was 3.2 g/dL. The TBIL (6 h) was 0.2 mg/dL, the TC (6 h) was 77.8 mg/dL and the TG (6 h) was 114.4 mg/dL. The TP (6 h) was 5.5 g/dL, the gamma-GTP (6 h) was 1.2 IU/L and the TERMINAL_BW (9 h) was 215.5 g. The APTT (9 h) was 18 s, the Bas (9 h) was 0% and the Eos (9 h) was 1%. The Fbg (9 h) was 217 mg/dL, the Hb (9 h) was 13.3 g/dL and the Ht (9 h) was 38.6%. For the same compound, the Lym (9 h) was 80.4%, the MCH (9 h) was 21.5 pg and the MCHC (9 h) was 34.4%. The MCV (9 h) was 62.6 fL, the Mono (9 h) was 2.2% and the Neu (9 h) was 16.2%. The PT (9 h) was 12.3 s, the Plat (9 h) was 125.1 x10_4/uL and the RBC (9 h) was 617.6 x10_4/ul. The Ret (9 h) was 6.5%, the WBC (9 h) was 74.3 x10_2/uL and the KIDNEY_L (9 h) was 0.9 g. The KIDNEY_R (9 h) was 0.9 g, the KIDNEY_TOTAL (9 h) was 1.9 g and the LIVER (9 h) was 8.9 g. For the same compound, the A/G (9 h) was 1.5, the ALP (9 h) was 1058 IU/L and the ALT (9 h) was 29 IU/L. It also gave an AST (9 h) of 62 IU/L, a BUN (9 h) of 9.2 mg/dL and a CRE (9 h) of 0.3 mg/dL. It also gave a Ca (9 h) of 10.5 mg/dL, a Cl (9 h) of 101.8 meq/L and a DBIL (9 h) of 0.07 mg/dL. It also gave a GLC (9 h) of 203.8 mg/dL, an IP (9 h) of 10.3 mg/dL and a K (9 h) of 3.8 meq/L. The LDH (9 h) was 163.4 IU/L, the Na (9 h) was 140 meq/L and the PL (9 h) was 132.6 mg/dL. It also gave an RALB (9 h) of 3.3 g/dL, a TBIL (9 h) of 0.1 mg/dL and a TC (9 h) of 67 mg/dL. It also gave a TG (9 h) of 60.6 mg/dL, a TP (9 h) of 5.5 g/dL and a gamma-GTP (9 h) of 0.8 IU/L. The TERMINAL_BW (24 h) was 231.2 g, the APTT (24 h) was 17.9 s and the Bas (24 h) was 0%. The Eos (24 h) was 1%, the Fbg (24 h) was 232.2 mg/dL and the Hb (24 h) was 13.5 g/dL. For the same compound, the Ht (24 h) was 39.7%, the Lym (24 h) was 79.2% and the MCH (24 h) was 20.8 pg. The MCHC (24 h) was 34%, the MCV (24 h) was 61 fL and the Mono (24 h) was 2.8%. It also gave a Neu (24 h) of 16.6%, a PT (24 h) of 11.9 s and a Plat (24 h) of 127.4 x10_4/uL. For the same compound, the RBC (24 h) was 650.8 x10_4/ul, the Ret (24 h) was 6% and the WBC (24 h) was 93.9 x10_2/uL. It also gave a KIDNEY_L (24 h) of 1 g, a KIDNEY_R (24 h) of 1 g and a KIDNEY_TOTAL (24 h) of 1.9 g. It also gave an LIVER (24 h) of 11.1 g, an A/G (24 h) of 1.3 and an ALP (24 h) of 1042.2 IU/L. The ALT (24 h) was 38.2 IU/L, the AST (24 h) was 65 IU/L and the BUN (24 h) was 15 mg/dL. For the same compound, the CRE (24 h) was 0.4 mg/dL, the Ca (24 h) was 10.8 mg/dL and the Cl (24 h) was 102.4 meq/L. The DBIL (24 h) was 0.08 mg/dL, the GLC (24 h) was 203.6 mg/dL and the IP (24 h) was 7.2 mg/dL. For the same compound, the K (24 h) was 3.8 meq/L, the LDH (24 h) was 200.4 IU/L and the Na (24 h) was 140.2 meq/L. It also gave a PL (24 h) of 152.6 mg/dL, an RALB (24 h) of 3.1 g/dL and a TBIL (24 h) of 0.1 mg/dL. The TC (24 h) was 79.4 mg/dL, the TG (24 h) was 99.4 mg/dL and the TP (24 h) was 5.5 g/dL. For the same compound, the gamma-GTP (24 h) was 1 IU/L.
